Entries after “also recorded” stand apart in the source; their conditions may differ.
Experiments:
HFpEF mice [1] = assay: Body weight during four weeks of daily recombinant Adropin in HFpEF mice (Example 1); format: in vivo; details: for relative body weight (change per mouse between days 0 and 29): p-value<0.0001
Text: The mouse HFpEF model used in this study was first reported in Schiattarella et al. (2019), Nature 568: 351-356 (PMID: 30971818). Adult C57BL/6N or C57BL/6J mice (i.e. C57BL/6 wildtype) are placed on a diet of either regular chow (“control”), or a high fat diet (60% fat) supplemented with 0.5 g/L L-NAME in drinking water (“HFpEF”) for 5-20 weeks.
(§1) Administration of Recombinant Adropin. Mice received low-fat chow or HFpEF diet for 10 weeks. For the following 4 weeks, the mice were maintained on respective diets and received daily injections of recombinant Adropin. Body weight was measured every day during the four weeks of treatment.

HFpEF mice [2] = assay: Cardiac function testing by ultrasonography in HFpEF mice (Example 1); format: in vivo; details: for diastolic function: HFpEF mice, daily Adropin treatment
Procedure: as §1
Cardiac function testing. After 2 weeks, mice were tested using ultrasonography to measure cardiac function and morphology. To determine systolic function and morphology, mice were tested using M-mode echocardiography to measure left ventricle (LV) mass, volume, wall thickness, and contraction (LV ejection fraction and fractional shortening). To determine diastolic function, mice were tested using Doppler to measure LV relaxation and filling (E/A ratio, E/e′ ratio, and isovolumetric relaxation time [IVRT]).

GPR19 = assay: Wildtype and GPR19-knockout mice on HFpEF diet with or without Adropin; format: in vivo
Text: Wildtype and GPR19-knockout (GPR19-KO) mice were given normal chow (control mice), HFpEF diet without Adropin, or HFpEF with Adropin.

[3] = In vivo stability of recombinant Adropin (clearance from circulation); details: within 1 hour
HFpEF mice [4] = assay: Intraperitoneal glucose tolerance test (IPGTT), cohort 2; format: in vivo, C57BL/6J mice
Text: Twelve week-old C57BL/6J wild-type male mice were exposed to normal chow, or a combination of 60% high fat diet plus N^ω-nitro-L-arginine methyl ester (L-NAME: 0.5 g/L in drinking water) to induce HFpEF. After 8 weeks of diet, mice were randomly assigned to a control HFpEF group, or to a group receiving daily intraperitoneal injections of recombinant Adropin (450 nmol/kg) for the remaining weeks of the study. All animal experiments were approved by the University of Pittsburgh Institutional Animal Care and Use Committee. […] These changes occurred in the absence of systolic dysfunction (FIG. 6). Each marker of cardiac dysfunction was absent in HFpEF mice treated with Adropin (FIG. 6).
Animal Care and Use. Male C57BL/6J 8-week-old mice were obtained from the Jackson Laboratory and maintained on chow for 4 weeks to acclimate to their new environment. Animals were housed in the University of Pittsburgh animal facility under standard conditions with ad libitum access to water and food and maintained on a constant 12-hour light/dark cycle. […]
Intraperitoneal Glucose Tolerance Test (IPGTT). […] Blood glucose was measured by tail bleed at set time points using a Bayer Contour Next EZ handheld glucometer (t=15, 30, 45, 60, and 120 min).

[5] = system: hearts from control HFpEF and Adropin treated HFpEF mice; assay: Bulk RNA sequencing of hearts, HFpEF vs HFpEF+Adropin; format: in vivo, C57BL/6J mice; details: heart bulk RNA-seq
Text: (§2) Animal Care and Use. Male C57BL/6J 8-week-old mice were obtained from the Jackson Laboratory and maintained on chow for 4 weeks to acclimate to their new environment. Animals were housed in the University of Pittsburgh animal facility under standard conditions with ad libitum access to water and food and maintained on a constant 12-hour light/dark cycle. At 12 weeks of age, the mice were exposed to normal chow (Chow; 60% carbohydrate, 26% protein, 14% fat), or a combination of high-fat diet (HFD; 20% carbohydrate, 20% protein, 60% fat) plus No-nitro-L-arginine methyl ester (L-NAME: 0.5 g/L) supplemented in their drinking water after adjusting the pH to 7.4 with 1N NaOH to induce HFpEF [10]. For cohort 1, the mice were subject to the HFpEF diet for 15 weeks. For cohort 2, after 8 weeks of diet, mice were randomly assigned to a control or treatment group receiving daily intraperitoneal injections of either vehicle or recombinant adropin at 450 nmol/kg animal weight prepared in PBS with 0.1% BSA for the remaining 5 weeks of the study. L-NAME supplemented drinking water was changed weekly and adropin was made fresh and sterile filtered before each use.
Transcriptomics. Total RNA was isolated from myocardial LV and hepatic tissue using the RNeasy Plus Mini Kit. Approximately 2 μg RNA was used for bulk RNA sequencing performed by Azenta/GENEWIZ based on company recommendations to identify differential gene expression patterns between the experimental groups.

CPT1b = assay: O-GlcNAc co-immunoprecipitation from heart: CPT1b; format: in vivo, C57BL/6J mice; details: Adropin-treated HFpEF mice, relative to levels in chow mice / HFpEF
Text: as §2
Co-Immunoprecipitation. […] Images were obtained using LiCor Odyssey CLx System and protein densitometry was measured using the LiCor Image Studio Lite Ver. […]

diabetic mice = details: cited from earlier work
[6] = 2 weeks of Adropin, vs HFpEF mice without treatment
[7] = 2 weeks of Adropin, vs HFpEF mice without treatment, p-value <0.05
[8] = wildtype HFpEF mice that received Adropin vs wildtype control mice

**Q.** For “Adropin: recombinant Adropin peptide hormone encoded by the ENHO gene; full-length (SEQ ID NO: 1) or cleaved product of amino acids 34-76 (SEQ ID NO: 2) (CHSRSADVDSLSESSPNSSPGPCPEKAPPPQKPSHEGSYLLQP)”, which “relative body weight (change per mouse between days 0 and 29)” value (HFpEF mice [1]; HFpEF mice that received Adropin vs HFpEF mice without treatment) is on record?
**A.** significantly lower

**Q.** And the “relative body weight (change per mouse between days 0 and 29)” value (HFpEF mice [1]; HFpEF mice that received Adropin vs mice on control chow diet)?
**A.** significantly greater

**Q.** What about the body weight (HFpEF mice [1]; HFpEF mice which received Adropin versus HFpEF mice which did not, daily Adropin for four weeks, beginning on day 8) of the same substance?
**A.** reduced; also recorded: decrease

**Q.** And the average cardiac output (HFpEF mice [2]; [6])?
**A.** greater

**Q.** What about the average ejection fraction (HFpEF mice [2]; [6]) of the same substance?
**A.** greater

**Q.** What about the “isovolumetric relaxation time (IVRT)” value (HFpEF mice [2]; [7]) of the same substance?
**A.** significantly lower

**Q.** What about the “left ventricle myocardial performance index (LV MPI)” value (HFpEF mice [2]; [7]) of the same substance?
**A.** significantly lower

**Q.** What about the diastolic function (HFpEF mice [2]) of the same substance?
**A.** improves

**Q.** What about the diastolic function (HFpEF mice [2]; listed as Recombinant Adropin) of the same substance?
**A.** significant increase

**Q.** And the diastolic function (HFpEF mice [2]; listed as recombinant Adropin)?
**A.** improved

**Q.** And the “average LV mass” value (HFpEF mice [2]; following 2 weeks of Adropin, vs HFpEF mice without treatment)?
**A.** lower

**Q.** What about the IVRT (GPR19; GPR19-KO HFpEF mice vs GPR19-KO control mice, in contrast to wildtype, p-value <0.01) of the same substance?
**A.** significantly greater

**Q.** And the “diastolic function (MV E/e′)” value (GPR19; GPR19-KO mice vs control mice, in contrast to wildtype, p-value <0.001)?
**A.** remained significantly lower

**Q.** And the “fasted body weight of HFpEF mice relative to HFpEF mice that received Adropin” value (GPR19; GPR19-KO mice, p-value <0.0001)?
**A.** significantly greater

**Q.** What about the “Adropin-mediated improvement of diastolic function in GPR19-KO HFpEF mice” value (GPR19; fasted body weight, MV E/e′ and IVRT) of the same substance?
**A.** not observed; also recorded: GPR19-dependent

**Q.** What about the “body weight of GPR19-KO HFpEF mice that received Adropin relative to wildtype HFpEF mice that received Adropin” value (GPR19; p-value <0.0001) of the same substance?
**A.** significantly greater

**Q.** And the “diastolic function (MV E/e′)” value (GPR19; wildtype HFpEF mice that received Adropin vs wildtype HFpEF mice without Adropin)?
**A.** increased on average

**Q.** What about the IVRT (GPR19; [8]) of the same substance?
**A.** not significantly different

**Q.** What about the “diastolic function (MV E/e′)” value (GPR19; [8]) of the same substance?
**A.** not significantly different

**Q.** And the IVRT (GPR19; wildtype HFpEF which received Adropin vs wildtype HFpEF mice without treatment, p-value <0.01)?
**A.** significantly lower

**Q.** What about the “fasted body weight of HFpEF mice relative to HFpEF mice that received Adropin” value (GPR19; wildtype mice, p-value <0.0001) of the same substance?
**A.** significantly greater

**Q.** And the “peptide cleared from circulation” value [3]?
**A.** 96%

**Q.** And the “increase in circulating blood glucose levels (IPGTT)” value (HFpEF mice [4]; HFpEF increase vs chow, after adropin treatment)?
**A.** significantly attenuated

**Q.** What about the “whole-body glucose tolerance / sensitivity” value (HFpEF mice [4]; HFpEF+Adropin vs HFpEF, 450 nmol/kg daily i.p.) of the same substance?
**A.** significantly restored; also recorded: significantly improves

**Q.** And the “expression of extracellular matrix remodeling/fibrosis (e.g. Comp, Col12a1) and natriuretic peptide (e.g. Nppa) genes” value ([5]; Adropin-treated vs HFpEF mice)?
**A.** decreased expression; also recorded: downregulated

**Q.** And the “decrease in extracellular matrix remodeling transcripts (Col1a1, Col3a1, Col5a1, Mmp2)” value ([5]; adropin-treated vs vehicle-treated HFpEF mice)?
**A.** > 2 fold

**Q.** What about the metabolic genes ([5]; between HFpEF and Adropin groups) of the same substance?
**A.** no widespread changes

**Q.** And the “CPT1b O-GlcNAcylation” value (CPT1b)?
**A.** restored; also recorded: reduced

**Q.** What about the vascular stiffness (diabetic mice; diet-induced obesity, previous study [9]) of the same substance?
**A.** reduced

**Q.** And the “hepatocellular injury in NAFLD/MAFLD” value (diabetic mice; exogenous adropin treatment, recent studies [34])?
**A.** alleviates

**Q.** What about the physical activity (diabetic mice; previous studies [6-8]) of the same substance?
**A.** improved

**Q.** And the “hepatic steatosis and injury” value (diabetic mice; previous studies [7, 34])?
**A.** attenuated

**Q.** And the “glucose oxidation in the hearts of diabetic mice” value (diabetic mice; previous work from our group)?
**A.** restores

**Q.** What about the “liver glucose production in diabetic mice” value (diabetic mice; previous work from our group) of the same substance?
**A.** decreases
